Source: patent US8362203B2, “Non-natural peptides as models for the development of antibiotics” (priority 2009, dated 2013)

Assays:
[1] = test system: E. coli helix 31 hairpin RNA (ECh31WT); assay: Fluorescence titration of 5′-fluorescein-labeled helix 31 RNA with peptide; format: binding; conditions: 0.5 μM h31, 10 mM HEPES, 50 mM NaCl, 1 mM Na2EDTA, pH 7.5, 25° C.; hyperbolic curve fitting; read-out: apparent KD (fluorescence)
Experimental: Fluorescence methods. Fluorescence measurements were taken on a RF-5301PC spectrofluorometer (Shimadzu) at 25° C. using a 1 cm path-length quartz fluorometer cell. The emission spectra were acquired by scanning between 500 and 600 nm with an excitation wavelength of 494 nm, slit widths of 3 nm for excitation and emission. The fluorescent titrations were performed by adding increasing concentrations of peptide (5-150 μM) to 350 μl of 0.5 μM 5′-fluorescein-labeled helix 31 RNA in HEPES buffer (10 mM HEPES, 50 mM NaCl, 1 mM Na2EDTA at pH 7.5) and incubated for 2 min for each concentration point followed by spectrum scanning. […] RNA-peptide binding was determined by quenching of the fluorescence intensity upon addition of peptide to the sample. The fluorescence intensity at 523 nm was converted to a fraction bound ratio and the dissociation constant (KD) of RNA-peptide binding was determined by curve fitting using the Kaleidagraph™ 3.0 program, as described in Chapter 3, Section 3.5.3
Fluorescence titration assay. […] In this experiment, the fluorescence intensity decreased upon increases in the peptide concentration (FIG. 54); however, the percent change in the observed fluorescence intensity was fairly small (7%). […]
The relatively poor fits may be a result of the fact that the fluorescence changes are quite small leading to greater error. […]

[2] = test system: E. coli helix 31 hairpin RNA (ECh31WT); assay: Circular dichroism titration of helix 31 RNA with peptide; format: binding; conditions: 0.5 μM h31, 100 mM NaCl, 10 mM sodium phosphate, 0.1 mM Na2EDTA, pH 7; CD at 270 nm; read-out: apparent KD (circular dichroism)
Experimental: Binding studies with CD. The titration was performed by adding increasing concentrations of peptide (10-80 μM) to 1 mL of 0.5 μM ECh31WT RNA in 10 mM sodium phoshate, 100 mM NaCl, 0.1 mM Na2EDTA at pH 7, and incubated for 2 min for each concentration point followed by spectrum scanning. Prior to titration, the RNA was renatured as described in Chapter 3, Section 3.2.2. RNA-peptide binding was determined by observing CD changes at 270 nm upon addition of peptide to the sample. The CD at 270 nm was converted to a fraction bound ratio and the dissociation constant (KD) of RNA-peptide binding was determined by curve fitting using the Kaleidagraph™ 3.0 program, as described in Chapter 3, Section 3.2.4.
Circular dichroism studies. CD was employed to assess the conformational changes in helix 31 upon binding of the peptide. […] Conformational changes in helix 31 measured by circular dichroism spectroscopy was performed in 100 mM NaCl, 10 mM sodium phosphate, and 0.1 mM Na2EDTA at pH 7. […] The dissociation constant (KD) of RNA-peptide binding was determined by plotting Fr versus peptide concentration, and by curve fitting to Equation, Fr=[P]^n/([P]^n+KD^n) where [P] is the peptide concentration, n is the Hill coefficient, and KD is the apparent dissociation constant (FIG. 56B). […]

[3] = test system: E. coli h31 RNA (ECh31WT); assay: SPR kinetic analysis of binding to immobilized biotinylated helix 31 RNA
Experimental: SPR methods. All immobilization and subsequent binding studies were performed using a BIAcore 2000 instrument set at a temperature of 25° C. Standard dextran surface BIAcore sensorchips (Sensor chip CM5) were purchased from BIAcore. Standard desorb and sanitize routines were performed according to the BIAcore guidelines before docking a new CM5 sensor chip. All buffers were filtered through sterile 0.2 μm nylon membranes (Millipore™) under vacuum. Before derivatizing the flow cells with streptavidin, the CM5 sensor chip was pre-conditioned using three successive 10 μl injections of chip-preparation solution (10 mM NaOH, 500 mM NaCl) at 100 μl/min, followed by a normalization routine using BIAnormalizing solution (40% glycerol). Streptavidin derivatization was performed as described in Chapter 3. Prior to immobilization, the solution of biotinylated RNA in HBS-EP buffer (10 mM HEPES, 3 mM EDTA, 150 mM NaCl, 0.005% P20 at pH 7.4) was renatured by heating to 90° C. for 2 min followed by placing on ice. Flow cells were functionalized by injecting 30 μl of RNA at a time using the MANUAL INJECT command at a flow rate of 10 μl/min, until the desired immobilization level is reached. One of the flow cells was used to immobilize RNA (typically FC4), while another one adjacent to it (FC3) remained unmodified to serve as a blank-control for matrix effects. Levels of RNA captured were calculated by subtracting […] for each flow cell. After RNA immobilization, FC3 and FC4 were blocked with 100 μL of 1 mg/mL biotin at 5 μL/min.
Peptide samples were prepared by serial dilutions from stock solutions into micro-centrifuge tubes. Dilutions are made by the same running buffer to avoid buffer mismatches. […]
Biotinylated helix 31 RNA was immobilized onto a streptavidin-coated CM5 chip and differing concentrations of 17 (TYLPWPA)-GFP (“TYLPWPA” disclosed as SEQ ID NO: 2) were injected as the analyte. […] Finally, the apparent dissociation constants were determined under optimized conditions. […]

“TYLPWPA [peptide 17, 7-mer peptide selected by phage display against helix 31 RNA]” was tested, and the Kd [1] was 27 ± 4 µM, the Kd [2] was 28 ± 10 µM and the “affinity for helix 31 RNA (in words)” value [3] was “moderate affinity”. For the same substance, the “KD (SPR, kd/ka)” value ([3]; Langmuir 1:1 model, same running buffer, pH 7.5, 50 μL/min) was 28 ± 1 µM and the “SPR response due to binding, free peptide as analyte” value ([3]; peptide without GFP) was “negligible responses”.
